The source made the active and inactive calls. Cut-off read from the data, not from the text of the source, for most assays here: actives have a measured EC50 and inactives only a lower limit.
Assays:
[1] = Luminescence Cell-Based Dose Retest to Confirm Inhibitors of Cancer Stem Cells. [Related pubchem assays (depositor defined):AID2717, AID2721]; format: functional; conditions: Homo sapiens
[2] = tested on: INS1; assay: beta cell apoptosis inhibitors, cytokine rescue, dose response, luminescence, retest (AID 449756); format: functional, cell-based; conditions: Rattus norvegicus;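 note: cell death triggered by IL-1 beta plus TNF-alpha plus IFN-gamma mixture; protective hits raise ATP signal compared with cytokine alone wells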
[3] = target: T1, RNA-binding protein pos-1 (Caenorhabditis elegans, UniProt G5EF15); assay: inhibitors of POS-1/mex-3 RNA binding, dose response, biochemical, fluorescence polarization (AID 1964);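 note: purified POS-1 fused to maltose binding protein made in E. coli; potency of compounds blocking POS-1 binding to fluorescent RNA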
T1 sequence (G5EF15 whole entry): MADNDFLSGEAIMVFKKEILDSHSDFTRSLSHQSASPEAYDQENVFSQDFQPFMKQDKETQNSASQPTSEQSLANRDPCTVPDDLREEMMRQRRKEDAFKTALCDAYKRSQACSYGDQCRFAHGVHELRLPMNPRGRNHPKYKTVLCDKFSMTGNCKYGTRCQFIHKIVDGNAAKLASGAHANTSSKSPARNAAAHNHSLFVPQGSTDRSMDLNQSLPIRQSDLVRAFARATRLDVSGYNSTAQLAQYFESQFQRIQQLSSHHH

[4] = target: T2, Zinc finger protein mex-5 (Caenorhabditis elegans, UniProt Q9XUB2); assay: MEX-5/TCR-2 RNA interaction inhibitors, dose response, biochemical, C. elegans, fluorescence polarization (AID 1960)
T2 sequence (Q9XUB2 whole entry): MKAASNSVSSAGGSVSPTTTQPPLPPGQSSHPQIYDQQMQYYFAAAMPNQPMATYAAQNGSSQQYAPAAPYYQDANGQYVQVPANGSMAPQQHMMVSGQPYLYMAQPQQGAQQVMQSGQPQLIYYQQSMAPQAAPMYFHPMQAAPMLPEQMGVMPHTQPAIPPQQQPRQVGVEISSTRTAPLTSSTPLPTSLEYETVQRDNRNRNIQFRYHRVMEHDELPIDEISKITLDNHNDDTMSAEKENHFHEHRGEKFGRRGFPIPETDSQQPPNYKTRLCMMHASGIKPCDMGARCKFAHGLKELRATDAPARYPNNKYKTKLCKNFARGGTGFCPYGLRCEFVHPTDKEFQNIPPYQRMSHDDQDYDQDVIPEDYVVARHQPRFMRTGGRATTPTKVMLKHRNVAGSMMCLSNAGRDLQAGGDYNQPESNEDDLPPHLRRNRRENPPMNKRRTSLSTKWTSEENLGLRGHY

[5] = target: T3, Polyadenylate-binding protein 1 (Homo sapiens, UniProt P11940); assay: PABP1 MLLE–PAM2 interaction inhibitors, dose response, miRNA deadenylation inhibitor project, biochemical, fluorescence polarization, Cy5-PAM2 peptide, secondary (AID 602260); format: functional; conditions: read-out: IC50_Mean
T3 sequence (P11940 whole entry): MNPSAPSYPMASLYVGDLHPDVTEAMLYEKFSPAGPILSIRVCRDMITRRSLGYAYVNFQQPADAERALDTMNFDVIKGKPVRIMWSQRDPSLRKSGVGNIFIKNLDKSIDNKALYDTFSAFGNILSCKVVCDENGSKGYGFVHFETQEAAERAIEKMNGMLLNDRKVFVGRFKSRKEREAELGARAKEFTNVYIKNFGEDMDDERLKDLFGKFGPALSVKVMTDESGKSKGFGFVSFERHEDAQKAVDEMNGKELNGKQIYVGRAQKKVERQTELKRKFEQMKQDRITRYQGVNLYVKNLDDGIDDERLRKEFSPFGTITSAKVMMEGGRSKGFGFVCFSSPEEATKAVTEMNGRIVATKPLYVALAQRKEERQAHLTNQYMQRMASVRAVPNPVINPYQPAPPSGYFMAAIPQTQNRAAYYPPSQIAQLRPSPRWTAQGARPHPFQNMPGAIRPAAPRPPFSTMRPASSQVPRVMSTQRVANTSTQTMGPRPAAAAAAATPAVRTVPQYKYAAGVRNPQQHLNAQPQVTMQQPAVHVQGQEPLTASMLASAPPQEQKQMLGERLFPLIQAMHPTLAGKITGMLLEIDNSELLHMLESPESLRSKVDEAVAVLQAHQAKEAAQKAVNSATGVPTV

[6] = target: T3, Polyadenylate-binding protein 1; assay: PABP1 MLLE–PAM2 binding inhibitor potency, dose response, biochemical, fluorescence polarization, FITC-PAM2 peptide (AID 602259); format: functional; conditions: read-out: IC50_Mean
[7] = HEp-2 cell cytotoxicity, dose response, cytotoxicity control for RSV inhibitor project, HTS (AID 2410); format: functional; conditions: human respiratory syncytial virus
[8] = target: Luciferin 4-monooxygenase (Photinus pyralis, UniProt P08659); assay: firefly luciferase enzyme inhibitors, dose response, biochemical, luminescence (AID 1891)
Chain of Luciferin 4-monooxygenase (P08659 whole entry): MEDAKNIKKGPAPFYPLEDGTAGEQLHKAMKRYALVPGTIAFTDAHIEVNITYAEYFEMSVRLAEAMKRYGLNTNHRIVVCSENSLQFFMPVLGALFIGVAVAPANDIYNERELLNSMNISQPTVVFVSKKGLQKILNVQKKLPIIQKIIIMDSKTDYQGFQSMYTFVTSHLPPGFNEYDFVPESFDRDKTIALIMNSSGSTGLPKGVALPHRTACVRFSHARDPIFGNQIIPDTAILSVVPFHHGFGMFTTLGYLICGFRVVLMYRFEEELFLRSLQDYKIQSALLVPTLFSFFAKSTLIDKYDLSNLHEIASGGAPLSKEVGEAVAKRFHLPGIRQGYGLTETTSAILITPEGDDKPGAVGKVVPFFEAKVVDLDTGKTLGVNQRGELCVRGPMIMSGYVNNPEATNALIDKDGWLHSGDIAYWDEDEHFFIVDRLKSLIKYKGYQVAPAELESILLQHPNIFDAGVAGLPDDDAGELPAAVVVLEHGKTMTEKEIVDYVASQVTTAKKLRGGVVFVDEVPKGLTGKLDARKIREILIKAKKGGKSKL

[9] = Luminescence Cell-Based Dose Confirmation HTS to Identify Inhibitors of Platelet Dense Granule Release. [Related pubchem assays: 1663 (Primary HTS), 1678 (Summary of Project)]; format: functional
[10] = inhibitors of intracellular T. cruzi replication, confirmation, NIH3T3 host cells, beta-gal luminescence (AID 2044); format: functional, cell-based;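 note: intracellular parasites grown in NIH/3T3 mouse fibroblasts as host cells; luminescent beta-galactosidase reporter signal from transgenic T. cruzi replicating inside host cells; inhibitors lower the luminescence signal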
[11] = cytotoxicity toward NIH3T3 fibroblasts, dose response, counter-screen, cell-based, ATP luminescence, mouse fibroblasts (AID 2010); format: functional;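 note: cells exposed to compound for about 90 hours before reading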
[12] = Luminescence Cell-Based Dose Response HTS to Identify Inhibitors of 5'UTR Stem-Loop Driven Prion Protein mRNA Translation in H4 Neuroglioblastoma Cells. [Related pubchem assays: 1827 (Project Summary), 1813 (Primary HTS)]; format: functional
[13] = inhibitors of SNCA 5'UTR-driven reporter translation, confirmation, H4 neuroglioma cells, luminescence (AID 1988); format: functional, cell-based
[14] = inhibitors of firefly luciferase expression or activity, dose response, H4 neuroglioma cells, luminescence (AID 1990); format: functional, cell-based
[15] = target: T4, Protein RecA (Mycobacterium tuberculosis, UniProt P9WHJ3); assay: Fluorescence Cell-Free Homogeneous Dose Retest to Identify Inhibitors of RecA-Intein Splicing Activity. [Related pubchem assays (depositor defined):AID2097, AID2223, AID489010, AID492950]; format: functional
T4 sequence (P9WHJ3 whole entry): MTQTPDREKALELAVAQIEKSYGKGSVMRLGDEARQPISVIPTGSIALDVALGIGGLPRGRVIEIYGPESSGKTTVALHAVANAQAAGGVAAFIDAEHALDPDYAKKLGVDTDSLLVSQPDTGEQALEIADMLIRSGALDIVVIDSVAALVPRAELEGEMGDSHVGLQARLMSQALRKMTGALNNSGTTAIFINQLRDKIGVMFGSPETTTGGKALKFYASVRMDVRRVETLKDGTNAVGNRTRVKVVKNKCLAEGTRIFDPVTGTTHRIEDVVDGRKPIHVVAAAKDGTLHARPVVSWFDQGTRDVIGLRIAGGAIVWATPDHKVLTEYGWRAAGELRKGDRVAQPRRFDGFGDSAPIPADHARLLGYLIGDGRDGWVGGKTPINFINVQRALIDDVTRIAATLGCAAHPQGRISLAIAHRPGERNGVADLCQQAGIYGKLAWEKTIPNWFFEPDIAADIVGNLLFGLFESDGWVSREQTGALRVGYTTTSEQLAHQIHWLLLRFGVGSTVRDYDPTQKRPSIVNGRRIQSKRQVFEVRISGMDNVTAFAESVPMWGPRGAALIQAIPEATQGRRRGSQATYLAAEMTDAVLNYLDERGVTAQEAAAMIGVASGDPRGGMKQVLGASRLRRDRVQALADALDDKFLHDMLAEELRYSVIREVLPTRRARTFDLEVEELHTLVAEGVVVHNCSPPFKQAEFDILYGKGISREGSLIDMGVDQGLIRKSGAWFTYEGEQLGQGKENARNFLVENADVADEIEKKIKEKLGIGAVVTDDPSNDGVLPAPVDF

[16] = target: Nonstructural protein 1 (Influenza A virus, UniProt Q194T2); format: functional, Influenza A virus (A/California/07/2009(H1N1))
Chain of Nonstructural protein 1 (Q194T2 whole entry): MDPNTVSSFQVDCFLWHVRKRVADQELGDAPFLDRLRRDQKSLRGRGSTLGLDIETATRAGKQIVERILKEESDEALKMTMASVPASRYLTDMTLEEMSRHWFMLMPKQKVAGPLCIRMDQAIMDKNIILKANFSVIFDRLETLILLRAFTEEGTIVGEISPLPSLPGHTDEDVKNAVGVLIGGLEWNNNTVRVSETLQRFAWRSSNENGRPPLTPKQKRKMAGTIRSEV

[17] = target: T5, Replicative DNA helicase DnaB (Mycobacterium tuberculosis, UniProt P9WMR3); assay: DnaB intein splicing inhibitors, dose response, biochemical, cell-free fluorescence (AID 449749); format: functional
T5 sequence (P9WMR3 whole entry): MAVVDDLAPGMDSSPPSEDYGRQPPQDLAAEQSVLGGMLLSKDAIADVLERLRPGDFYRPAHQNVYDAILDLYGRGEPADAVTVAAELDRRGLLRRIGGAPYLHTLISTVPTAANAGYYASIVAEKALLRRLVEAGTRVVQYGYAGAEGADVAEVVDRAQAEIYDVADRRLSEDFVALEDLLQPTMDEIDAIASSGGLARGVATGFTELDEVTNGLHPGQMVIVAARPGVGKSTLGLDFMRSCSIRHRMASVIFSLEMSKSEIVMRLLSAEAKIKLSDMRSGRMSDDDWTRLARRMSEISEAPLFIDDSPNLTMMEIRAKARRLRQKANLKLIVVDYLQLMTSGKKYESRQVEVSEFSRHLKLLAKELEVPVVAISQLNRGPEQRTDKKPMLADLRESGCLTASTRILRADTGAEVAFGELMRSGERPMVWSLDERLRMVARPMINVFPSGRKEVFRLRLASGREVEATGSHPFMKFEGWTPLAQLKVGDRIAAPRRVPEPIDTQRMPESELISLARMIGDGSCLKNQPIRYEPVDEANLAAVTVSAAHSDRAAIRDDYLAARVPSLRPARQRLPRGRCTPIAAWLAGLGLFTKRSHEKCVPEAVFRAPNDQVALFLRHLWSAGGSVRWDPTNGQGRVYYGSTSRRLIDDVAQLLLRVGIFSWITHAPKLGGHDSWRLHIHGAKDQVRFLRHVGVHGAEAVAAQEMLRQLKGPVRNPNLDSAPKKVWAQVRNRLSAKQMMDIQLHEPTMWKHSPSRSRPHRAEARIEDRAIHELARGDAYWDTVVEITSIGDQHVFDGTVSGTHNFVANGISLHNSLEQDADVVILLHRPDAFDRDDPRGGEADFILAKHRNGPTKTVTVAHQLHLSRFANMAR

[18] = P. falciparum Dd2 growth inhibitors, dose response, SYBR Green, cherry-picked samples (AID 1159567); format: functional, cell-based
[19] = Luminescence Cell-Based Dose Response HTS to Identify Activators of Luciferase Translation or Activity in H4 […] Cells. [Related pubchem assays: 1829 (Project Summary), 1814 (Primary HTS)]; format: functional
[20] = tested on: H4; assay: Luminescence Cell-Based Dose Response HTS to Identify Activators of 5'UTR Stem-Loop Driven Prion Protein mRNA Translation in H4 Neuroglioblastoma Cells. [Related pubchem assays: 1829 (Project Summary), 1814 (Primary HTS)]; format: functional; conditions: Homo sapiens

C=C1[C@@H](O)[C@@H]2O[C@]3(CC[C@H](/C=C/[C@@H](C)[C@@H]4CC(C)=CC5(O[C@H](C[C@@](C)(O)C(=O)OC)CC[C@H]5O)O4)O3)CC[C@H]2O[C@@H]1[C@@H](O)C[C@H](C)[C@H]1OC2(CCCCO2)CC[C@H]1C (stereo partly drawn)
AC50 [1]: < 0.16 µM (inconclusive)
AC50 [2]: < 0.195 µM (active)

COC(=O)c1ccccc1-n1c(CCC(=O)O)ccc1-c1ccc(F)cc1
EC50 [3]: > 300 µM (not active)
EC50 [4]: > 300 µM (not active)

O=C(CSc1n[nH]c2c3ccccc3nc-2n1)NCc1ccco1
IC50 [5]: > 66 µM (inactive)
IC50 [6]: > 66 µM (inactive)

Cc1ccnc(Nc2nc(-c3ccc(O)cc3O)cs2)c1
AC50 [1]: 12.3 µM (active)
CC50 [7]: 25.8 µM (active)

CCOC(=O)c1[nH]nc(-c2c(O)cc(C)cc2O)c1-c1csc(C)n1
EC50 [8]: > 112 µM (not active)
EC50 [9]: > 112 µM (not active)

CCn1c2ccccc2c2cc(NC(=O)c3cccc([N+](=O)[O-])c3)ccc21
AC50 [1]: 1.62 µM (active)

Nc1ccc2c(c1)C/C(=C/c1ccco1)C2=O
EC50 [3]: 23 µM (active)
EC50 [4]: 14.3 µM (active)

CCN(CC)C(=O)c1sc2nc(-c3cccs3)cc(-c3cccs3)c2c1N
EC50 [3]: > 300 µM (not active)
EC50 [4]: > 300 µM (not active)

COc1ccc(NC(=O)c2ccc(OC(F)F)cc2)cc1Cl
EC50 [8]: 3.3 µM (active)
EC50 [9]: 4.52 µM (active)

Cc1cc(C(=O)N/N=C/c2cc(Br)cc(Br)c2OC(=O)c2cccc(F)c2)[nH]n1
EC50 [10]: 1.01 µM (active)
EC50 [11]: > 60 µM (inconclusive)
AC50 [1]: 3.46 µM (active)
EC50 [12]: 8.33 µM (active)
AC50 [2]: 2.33 µM (active)
EC50 [13]: 7.49 µM (active)
EC50 [14]: 8.5 µM (active)

COc1ccc(C2=NN(c3ccccc3)C(=O)/C2=C\c2ccc(O)c(OC)c2)cc1
EC50 [15]: 1.42 µM (active)
IC50 [16]: 42.4 µM (active)
AC50 [17]: 2.29 µM (active)

Cc1ccc2oc(-c3ccc(NC(=O)c4cccnc4)cc3)nc2c1
AC50 [2]: 7.77 µM (active)
EC50 [8]: > 112 µM (not active)
EC50 [9]: > 112 µM (not active)

Cc1ccc(-c2nc(/C=N/c3ccc(O)cc3)c(O)o2)cc1
EC50 [3]: > 300 µM (not active)
EC50 [4]: > 300 µM (not active)

COc1cccc(-c2ccc([C@H]3[C@H](CO)N4CCCCN(CC5CC5)C[C@@H]34)cc2)c1
AC50 [18]: 5.84 µM (active)

COc1ccccc1/C=N/Nc1nccnc1Cl
EC50 [8]: 12.3 µM (active)
EC50 [9]: 5.37 µM (active)

COc1ccc(NS(=O)(=O)c2ccc(F)c(Cl)c2)cn1
IC50 [5]: 46.2 µM (inactive)
IC50 [6]: 24.2 µM (inactive)

CS(=O)(=O)N1[C@H](C#N)[C@H](c2ccccc2-c2ccccc2)[C@H]1CO
AC50 [18]: > 36 µM (inactive)

COc1ccc(-c2[nH]ncc2N=Nc2ccccc2)cc1
AC50 [1]: 3.81 µM (active)

CC1=CC(C)(C)N2C(=O)C3(C(C#N)=C(N)OC4=C3C(=O)CC(C)(C)C4)c3c(C)c(C)cc1c32 (stereo not drawn)
EC50 [3]: > 300 µM (not active)
EC50 [4]: > 300 µM (not active)

Cc1nn(CC(C)C)c(Cl)c1C(=O)NC1CCC(C)CC1 (stereo not drawn)
EC50 [19]: 0.258 µM (active)
EC50 [20]: 1.19 µM (active)

CCOC(=O)C1=C(C)NC(=O)NC1
EC50 [8]: > 112 µM (not active)
EC50 [9]: 5.87 µM (active)

CCCCOc1c(Br)cc(/C=N/O)cc1OCC
EC50 [3]: > 300 µM (not active)
EC50 [4]: > 300 µM (not active)

Fc1ccc(NC(S)=Nc2ccc(Br)cc2)cc1
IC50 [5]: > 66 µM (inactive)
IC50 [6]: > 66 µM (inactive)

O=C1CCn2c1c(O)c1ccccc1c2=O
IC50 [5]: > 66 µM (inactive)
IC50 [6]: 43.6 µM (inactive)

C=CCN1C(=O)/C(=C/C=C2/N(CC)c3ccc(S(=O)(=O)N(C)C)cc3N2CC)SC1=S
IC50 [16]: > 100 µM (active)

O=C(N/N=C/c1sc(=O)n(-c2ccccc2)c1Cl)c1ccccc1
EC50 [20]: 34.9 µM (inconclusive)

COc1cccc(-c2ccc3c(c2)[C@H]2[C@H](CCN2C(=O)C2CCCC2)[C@H](CO)N3)c1
AC50 [18]: 7.06 µM (active)

Cc1occc1C(=O)Nc1cc(C(C)(C)C)on1
EC50 [8]: 2.78 µM (active)
EC50 [9]: 3.46 µM (active)

COc1ccc(-n2c(Cc3cccn3C)nnc2SCC(=O)Nc2cccc(Cl)c2)cc1
AC50 [1]: 125 µM (active)

Cc1ccccc1-c1ccc([C@H]2[C@H]3CNC[C@@H]2N3S(=O)(=O)c2cccc(F)c2)cc1
AC50 [18]: 35.7 µM (active)

— ChEMBL document CHEMBL1201862, “PubChem BioAssay data set” (2004)
